Source: patent publication US20240180883A1, “TREATMENT OF MIGRAINE” (Allergan Pharmaceuticals International Limited, priority 2020, published 2024)

How the values were obtained:
P-gp = P-gp (Homo sapiens, UniProt P08183); assay: P-gp transporter substrate in vitro; assay type: in vitro ADME
[1] = Ubrogepant clinical pharmacokinetics summary; assay type: in vivo, human
Protocol: Ubrogepant is excreted mainly through the biliary/fecal route, while the renal route is a minor route of elimination.
In clinical studies, ubrogepant was administered without regard to food. […]

BCRP = target: T1, BCRP (Homo sapiens, UniProt Q9UNQ0); assay: BCRP transporter substrate in vitro; assay type: in vitro ADME
T1 sequence (Q9UNQ0 1-655): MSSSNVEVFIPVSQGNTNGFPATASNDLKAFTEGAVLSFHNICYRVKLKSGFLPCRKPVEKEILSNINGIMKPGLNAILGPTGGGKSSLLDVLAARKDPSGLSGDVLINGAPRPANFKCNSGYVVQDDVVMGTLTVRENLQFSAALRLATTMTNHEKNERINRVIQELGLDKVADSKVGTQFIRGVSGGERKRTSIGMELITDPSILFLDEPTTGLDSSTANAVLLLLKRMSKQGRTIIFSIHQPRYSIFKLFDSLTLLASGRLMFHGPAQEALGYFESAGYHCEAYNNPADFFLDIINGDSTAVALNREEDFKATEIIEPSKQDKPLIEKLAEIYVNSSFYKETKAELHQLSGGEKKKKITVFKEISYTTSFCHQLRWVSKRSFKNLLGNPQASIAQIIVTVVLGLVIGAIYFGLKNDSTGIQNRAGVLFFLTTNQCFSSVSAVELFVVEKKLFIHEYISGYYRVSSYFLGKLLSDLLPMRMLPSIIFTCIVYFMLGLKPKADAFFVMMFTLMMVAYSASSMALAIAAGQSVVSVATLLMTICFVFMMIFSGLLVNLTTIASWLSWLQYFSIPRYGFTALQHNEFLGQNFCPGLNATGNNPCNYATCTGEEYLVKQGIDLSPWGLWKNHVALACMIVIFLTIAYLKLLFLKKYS

[2] = test system: adult patients with migraine; assay: Phase 3 Study 2 (NCT02867709) migraine efficacy; assay type: in vivo, human; conditions: Study 2, 50 mg
Text: (§1) In two randomized, double-blind, placebo-controlled, Ph. […] Of the ubrogepant-treated patients in these two studies, approximately 89% were female, 82% were white, 15% were Black, and 17% were of Hispanic or Latino ethnicity. The mean age at study entry was 41 years (range of 18-75 years).
In all studies, patients were instructed to treat a migraine with moderate to severe headache pain intensity. […] Up to 23% of patients were taking preventive medications for migraine at baseline. None of these patients were on concomitant preventive medication that act on the CGRP pathway.
The primary efficacy analyses were conducted in patients who treated a migraine with moderate to severe pain. […] Pain freedom was defined as a reduction of moderate or severe headache pain to no pain, and MBS freedom was defined as the absence of the self-identified MBS (i.e., photophobia, phonophobia, or nausea). Among patients who selected an MBS, the most commonly selected was photophobia (56%), followed by phonophobia (24%) and nausea (19%).
Table 14 also presents the results of the analyses of the percentage of patients achieving pain relief at 2 hours (defined as a reduction in migraine pain from moderate or severe to mild or none) post-dose and the percentage of patients achieving sustained pain freedom between 2 to 24 hours post-dose.

plasma protein = assay: Plasma protein binding in vitro; assay type: in vitro ADME
[3] = Adverse reactions in Studies 1 and 2; assay type: in vivo, human
Text: as §1

[4] = Hepatic impairment study: adverse events; assay type: in vivo, human
Text: Participants were queried regarding any AEs or SAEs at the time of each vital sign assessment, as well as at each visit through to the follow-up visit.
Criteria for potential Hy's Law cases were as follows: AST or ALT≥3×ULN and Total Bilirubin≥2×ULN and Alkaline phosphatase<2×ULN.

[5] = single dose [14C]-ubrogepant, healthy male subjects
[6] = Studies 1 and 2, 50 mg (N = 954)
[7] = Studies 1 and 2, 100 mg (N = 485)
[8] = 100 mg single oral dose, all 28 participants
[9] = 100 mg single oral dose, mild hepatic impairment
[10] = 100 mg single oral dose, moderate hepatic impairment
[11] = 100 mg single oral dose, normal hepatic function
[12] = 100 mg single oral dose, severe hepatic impairment

Chain of P-gp (P08183 whole entry): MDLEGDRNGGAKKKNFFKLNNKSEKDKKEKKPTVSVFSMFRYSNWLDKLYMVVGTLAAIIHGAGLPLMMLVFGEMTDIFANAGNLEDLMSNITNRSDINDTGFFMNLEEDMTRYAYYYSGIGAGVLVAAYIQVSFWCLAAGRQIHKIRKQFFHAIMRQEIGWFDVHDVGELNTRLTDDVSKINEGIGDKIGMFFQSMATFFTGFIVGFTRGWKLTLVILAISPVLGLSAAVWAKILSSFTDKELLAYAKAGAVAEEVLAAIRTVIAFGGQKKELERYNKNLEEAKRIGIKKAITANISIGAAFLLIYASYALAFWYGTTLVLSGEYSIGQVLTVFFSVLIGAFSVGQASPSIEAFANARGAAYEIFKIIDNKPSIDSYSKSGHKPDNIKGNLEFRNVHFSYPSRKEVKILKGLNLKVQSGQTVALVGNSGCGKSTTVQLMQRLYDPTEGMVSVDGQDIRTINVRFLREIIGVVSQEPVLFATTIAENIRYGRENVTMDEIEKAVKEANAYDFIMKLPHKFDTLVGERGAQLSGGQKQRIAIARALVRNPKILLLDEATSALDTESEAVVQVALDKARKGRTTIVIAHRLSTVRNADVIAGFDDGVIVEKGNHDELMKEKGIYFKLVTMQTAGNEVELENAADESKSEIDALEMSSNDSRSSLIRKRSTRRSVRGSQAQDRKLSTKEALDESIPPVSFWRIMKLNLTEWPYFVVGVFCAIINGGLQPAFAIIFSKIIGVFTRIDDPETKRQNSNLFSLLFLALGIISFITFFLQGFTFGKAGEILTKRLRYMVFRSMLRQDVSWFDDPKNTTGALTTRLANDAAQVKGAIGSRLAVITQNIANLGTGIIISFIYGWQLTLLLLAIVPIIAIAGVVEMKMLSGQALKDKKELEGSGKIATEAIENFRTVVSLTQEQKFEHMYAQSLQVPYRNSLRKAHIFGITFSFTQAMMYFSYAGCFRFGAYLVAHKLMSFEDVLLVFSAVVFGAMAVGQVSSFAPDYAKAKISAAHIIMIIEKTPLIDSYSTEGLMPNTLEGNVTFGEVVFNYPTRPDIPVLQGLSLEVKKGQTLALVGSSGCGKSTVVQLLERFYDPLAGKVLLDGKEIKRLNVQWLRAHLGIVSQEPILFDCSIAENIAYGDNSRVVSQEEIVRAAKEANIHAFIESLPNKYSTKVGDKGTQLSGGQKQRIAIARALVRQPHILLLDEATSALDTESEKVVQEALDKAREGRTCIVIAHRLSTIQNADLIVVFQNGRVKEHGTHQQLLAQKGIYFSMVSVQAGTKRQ

SMILES: C[C@@H]1[C@H](c2ccccc2)C[C@H](NC(=O)c2cnc3c(c2)C[C@@]2(C3)C(=O)Nc3ncccc32)C(=O)N1CC(F)(F)F [ubrogepant, (3′S)-N-((3S,5S,6R)-6-methyl-2-oxo-5-phenyl-1-(2,2,2-trifluoroethyl)piperidin-3-yl)-2′-oxo-1′,2′,5,7-etrahydrospiro[cyclopenta[b]pyridine-6,3′-pyrrolo[2,3-b]pyridine]-3-carboxamide]
- substrate of P-gp transporter (P-gp): substrate
- renal route elimination ([1]; human, in vivo): < 10%
- mean apparent oral clearance (CL/F) ([1]; human, in vivo, po): approximately 87 L/hr
- half-life ([1]; human, plasma, oral, read-out: elimination half-life): 5 to 7 h
- time of peak plasma concentrations ([1]; oral administration): approximately 1.5 hours
- dose recovered as unchanged ubrogepant in feces [1, 5]: 42%
- dose recovered as unchanged ubrogepant in urine [1, 5]: 6%
- mean apparent central volume of distribution (V/L) ([1]; single dose oral administration): approximately 350 L
- change in AUC ([1]; with a high-fat meal): no change in AUC
- delay of time to maximum plasma concentration ([1]; with a high-fat meal): 2 h
- reduction in Cmax ([1]; with a high-fat meal): 22%
- substrate of BCRP transporter (BCRP): substrate
- Most Bothersome Symptom Free at 2 hours, % Responders [2]: 38.9%
- Most Bothersome Symptom Free at 2 hours, Difference from Placebo [2]: 11.5%
- Pain Relief at 2 hours, % Responders [2]: 62.7%
- Pain free at 2 hours, % Responders [2]: 21.8%
- Pain free at 2 hours, Difference from Placebo [2]: 7.5%
- Sustained pain freedom at 2-24 hours, % Responders [2]: 14.4%
- fraction unbound (plasma protein): 0.13
- Dry Mouth [3, 6]: <1%
- Nausea [3, 6]: 2%
- Somnolence (includes sedation and fatigue) [3, 6]: 2%
- Dry Mouth [3, 7]: 2%
- Nausea [3, 7]: 4%
- Somnolence (includes sedation and fatigue) [3, 7]: 3%
- changes in laboratory parameters, vital signs, or ECG measurements ([4]; 100 mg single oral dose): no clinically relevant changes in laboratory parameters, vital signs, or ECG measurements
- participants with TEAEs, overall [4, 8]: 17.9%
- participants with headache, overall [4, 8]: 2 participants
- AE leading to study discontinuation [4, 9]: 0 n (%)
- Any SAE [4, 9]: 0 n (%)
- Any TEAE [4, 9]: 3 (37.5) n (%)
- Any treatment-related TEAE [4, 9]: 2 (25.0) n (%)
- Deaths [4, 9]: 0 n (%)
- Diarrhoea [4, 9]: 1 (12.5) n (%)
- Dizziness [4, 9]: 0 n (%)
- Dyspepsia [4, 9]: 1 (12.5) n (%)
- Gastrointestinal Disorders [4, 9]: 2 (25.0) n (%)
- Headache [4, 9]: 1 (12.5) n (%)
- Nervous System Disorders [4, 9]: 1 (12.5) n (%)
- AE leading to study discontinuation [4, 10]: 0 n (%)
- Any SAE [4, 10]: 0 n (%)
- Any TEAE [4, 10]: 2 (25.0) n (%)
- Any treatment-related TEAE [4, 10]: 2 (25.0) n (%)
- Deaths [4, 10]: 0 n (%)
- Diarrhoea [4, 10]: 0 n (%)
- Dizziness [4, 10]: 1 (12.5) n (%)
- Dyspepsia [4, 10]: 0 n (%)
- Gastrointestinal Disorders [4, 10]: 0 n (%)
- Headache [4, 10]: 1 (12.5) n (%)
- Nervous System Disorders [4, 10]: 2 (25.0) n (%)
- AE leading to study discontinuation [4, 11]: 0 n (%)
- Any SAE [4, 11]: 0 n (%)
- Any TEAE [4, 11]: 0 n (%)
- Any treatment-related TEAE [4, 11]: 0 n (%)
- Deaths [4, 11]: 0 n (%)
- Diarrhoea [4, 11]: 0 n (%)
- Dizziness [4, 11]: 0 n (%)
- Dyspepsia [4, 11]: 0 n (%)
- Gastrointestinal Disorders [4, 11]: 0 n (%)
- Headache [4, 11]: 0 n (%)
- Nervous System Disorders [4, 11]: 0 n (%)
- AE leading to study discontinuation [4, 12]: 0 n (%)
- Any SAE [4, 12]: 0 n (%)
- Any TEAE [4, 12]: 0 n (%)
- Any treatment-related TEAE [4, 12]: 0 n (%)
- Deaths [4, 12]: 0 n (%)
- Diarrhoea [4, 12]: 0 n (%)
- Dizziness [4, 12]: 0 n (%)
- Dyspepsia [4, 12]: 0 n (%)
- Gastrointestinal Disorders [4, 12]: 0 n (%)
- Headache [4, 12]: 0 n (%)
- Nervous System Disorders [4, 12]: 0 n (%)
- tolerability ([4]; healthy participants and participants with mild to severe hepatic impairment): well-tolerated
